Data: patent publication US6924309B2 (Children, Youth and Women's Health Service Incorporated, priority 1999, dated 2005)
Where two headings read alike, the source gives them in different places.

Key:
[1] = Petri-dish thin film autoxidation of arachidonic acid with thia fatty acids and sulfides (HPLC); details: for Arachidonic acid (%) recovered following autoxidation: arachidonic acid alone
Protocol: A stock solution in dichioromethane (2 ml) containing arachidonic acid 1 (18 mg) and 3-[(3Z,6Z)-nona-3,6dienylthio]propionic acid 106 (18 mg) was prepared with lauric acid (18 mg) as an internal standard. Samples of the stock solution (100 μl) were added to glass Petri-dishes followed by ethanol (400 μl). After evaporation of the solvent, a well-distributed thin film was formed on each Petri-dish. The Petri-dishes were placed in a desiccator, which was then evacuated, filled with oxygen and stored in the darkness. Dishes were removed from the desiccator after 1, 2, 3, 5 and 7 days. The mixture on each dish was redissolved in diethyl ether and transferred to a 2 ml vial. After evaporation of the solvent, the residue was dissolved in the HPLC mobile phase (100 μl) and 10% of the solution was analysed by HPLC using a reverse phase column (octadecylsilane) (4.6 mm×250 mm, 3 μm) and a refractive index detector.
Autoxidation of arachidonic acid was conducted in the presence of compound 19 and lauric acid. Stock solutions of arachidonic acid, compound 19 and lauric acid in dichloromethane with equal concentrations were added to a 25 ml round-bottomed flask, and the solvent was evaporated to leave a thin film on the internal surface of the flask. The flask was then filled with oxygen and kept in the dark. The percentages of arachidonic acid and compound 19 remaining after 7 days were measured by HPLC. The same assay was carried out simultaneously with several flasks but the results were not reproducible. The variation was attributed to differences in oxygen concentration and the surface area of the thin films formed in the flasks. Therefore, in order to establish a reproducible assay for the analysis of the autoxidation of arachidonic acid, Petri-dishes with uniform size (80 mm in diameter) were used instead of flasks for thin film formation and the oxidation was carried out by placing the Petri-dishes in a dessicator filled with oxygen. To assess this method, thin firms of arachidonic acid with lauric acid as a standard were prepared on six Petri-dishes using identical treatment, and then subjected to oxidation in the same dessicator filled with oxygen. After 24 h, the percentage of arachidonic acid recovered following autoxidation in each Petri-dish was determined by HPLC. […] The advantage of using a Petri-dish over a flask is that the thin films on each Petri-dish are spread over the same area, and each Petri-dish is exposed to oxygen to the same extent.
Using the Petri-dish assay method, the effects of the thia PUFAs and sulfides 106 and 108-111, along with compounds 18, 19 and 3-[(Z,Z,Z)-(octadeca-9,12,15-trienylthio)] propionic acid 112 which were available in the laboratory, on the autoxidation of arachidonic acid, were examined. In addition, the stability of these compounds in the presence of arachidonic acid was also investigated. Arachidonic acid and lauric acid as a standard were mixed with each sulfur compound at different ratios and the mixtures were subjected to thin film autoxidation. The mixtures were analysed by HPLC after 1,2,3,5 and 7 days.

[2] = Thin film autoxidation of arachidonic acid with compounds 16-19 (HPLC)
Description: Subsequently, the autoxidation of compounds 16-19 and their effects on the autoxidation of arachidonic acid were investigated. In these experiments, a thin film assay method was employed. For each reaction, arachidonic acid was mixed with one of the synthetic compounds 16, 17, 18 or 19 at 1:1 ratio with or without the radical initiator, azobisisobutyronitrile (AIBN). A reverse phase HPLC method was used to simultaneously measure the relative amounts of arachidonic acid and the synthetic compounds 16, 17, 18 or 19 recovered following 60 or 70 hours or 7 days of thin film autoxidation.

[3] = 1:1 ratio with arachidonic acid
[4] = compound at one-tenth that of arachidonic acid
[5] = ratio arachidonic acid:compound 1:1, 1 day
[6] = ratio arachidonic acid:compound 1:1, 2 days
[7] = ratio arachidonic acid:compound 1:1, 3 days
[8] = ratio arachidonic acid:compound 1:1, 5 days
[9] = ratio arachidonic acid:compound 1:1, 7 days
[10] = ratio arachidonic acid:compound 2:1, 1 day
[11] = ratio arachidonic acid:compound 2:1, 2 days
[12] = ratio arachidonic acid:compound 2:1, 3 days
[13] = ratio arachidonic acid:compound 2:1, 5 days
[14] = ratio arachidonic acid:compound 2:1, 7 days
[15] = ratio arachidonic acid:compound 10:1, 1 day
[16] = ratio arachidonic acid:compound 10:1, 2 days
[17] = ratio arachidonic acid:compound 10:1, 3 days
[18] = ratio arachidonic acid:compound 10:1, 5 days
[19] = ratio arachidonic acid:compound 10:1, 7 days

| Compound | Antioxidant effect on autoxidation of arachidonic acid (in words) [1, 3] | Antioxidant effect on autoxidation of arachidonic acid (in words) [1, 4] | Arachidonic acid (%) recovered following autoxidation in the presence of the compound [1, 5] [%] | Compound (%) recovered following autoxidation with arachidonic acid [1, 5] [%] | Arachidonic acid (%) recovered following autoxidation in the presence of the compound [1, 6] [%] | Compound (%) recovered following autoxidation with arachidonic acid [1, 6] [%] | Arachidonic acid (%) recovered following autoxidation in the presence of the compound [1, 7] [%] | Compound (%) recovered following autoxidation with arachidonic acid [1, 7] [%] | Arachidonic acid (%) recovered following autoxidation in the presence of the compound [1, 8] [%] | Compound (%) recovered following autoxidation with arachidonic acid [1, 8] [%] | Arachidonic acid (%) recovered following autoxidation in the presence of the compound [1, 9] [%] | Compound (%) recovered following autoxidation with arachidonic acid [1, 9] [%] | Arachidonic acid (%) recovered following autoxidation in the presence of the compound [1, 15] [%] | Compound (%) recovered following autoxidation with arachidonic acid [1, 15] [%] | Arachidonic acid (%) recovered following autoxidation in the presence of the compound [1, 16] [%] | Compound (%) recovered following autoxidation with arachidonic acid [1, 16] [%] | Arachidonic acid (%) recovered following autoxidation in the presence of the compound [1, 17] [%] | Arachidonic acid (%) recovered following autoxidation in the presence of the compound [1, 18] [%] | Arachidonic acid (%) recovered following autoxidation in the presence of the compound [1, 19] [%] | also measured |
| --- | --- | --- | --- | --- | --- | --- | --- | --- | --- | --- | --- | --- | --- | --- | --- | --- | --- | --- | --- | --- |
| CCCCC/C=C\C/C=C\C/C=C\C/C=C\CCCC(=O)O [Arachidonic acid, arachidonic acid, reference compound] | – | – | – | – | – | – | – | – | – | – | – | – | – | – | – | – | – | – | – | Arachidonic acid (%) recovered following autoxidation ([1]; 1 day): 91%; Arachidonic acid (%) recovered following autoxidation ([1]; 2 days): 20%; Arachidonic acid (%) recovered following autoxidation ([1]; 3 days): 16%; Arachidonic acid (%) recovered following autoxidation ([1]; 5 days): 12% |
| CCCCC/C=C\C/C=C\C/C=C\CCCCCOCC(=O)O [Compound 16, (Z,Z,Z)-(octadeca-6,9,12-trienyloxy) acetic acid] | – | – | – | – | – | – | – | – | – | – | – | – | – | – | – | – | – | – | – | Percentage of arachidonic acid recovered in the presence of the compound ([2]; ratio 1:1, 10% AIBN 60 h): 17%; Percentage of compound recovered (with arachidonic acid) ([2]; ratio 1:1, 10% AIBN 60 h): 11%; Percentage of arachidonic acid recovered in the presence of the compound ([2]; ratio 1:1, no additive 70 h): 97%; Percentage of compound recovered (with arachidonic acid) ([2]; ratio 1:1, no additive 70 h): 88%; Percentage of arachidonic acid recovered in the presence of the compound ([2]; ratio 1:1, no additive 7 day): 23%; Percentage of compound recovered (with arachidonic acid) ([2]; ratio 1:1, no additive 7 day): 27% |
| CC/C=C\C/C=C\C/C=C\CCCCCCCCOCC(=O)O [Compound 17, (Z,Z,Z)-(octadeca-9,12,15-trienyloxy) acetic acid] | – | – | – | – | – | – | – | – | – | – | – | – | – | – | – | – | – | – | – | Percentage of arachidonic acid recovered in the presence of the compound ([2]; ratio 1:1, 10% AIBN 60 h): 44%; Percentage of compound recovered (with arachidonic acid) ([2]; ratio 1:1, 10% AIBN 60 h): 49%; Percentage of arachidonic acid recovered in the presence of the compound ([2]; ratio 1:1, no additive 70 h): 92%; Percentage of compound recovered (with arachidonic acid) ([2]; ratio 1:1, no additive 70 h): 102%; Percentage of arachidonic acid recovered in the presence of the compound ([2]; ratio 1:1, no additive 7 day): 30%; Percentage of compound recovered (with arachidonic acid) ([2]; ratio 1:1, no additive 7 day): 41%; Autoxidation of arachidonic acid in the presence of the compound (in words) ([2]; ratio 1:1, with or without AIBN): substantial degree of autoxidation |
| CC/C=C\C/C=C\CCSCCC(=O)O [Compound 106] | almost complete prevention of autoxidation | very slow over the first 3 days | 99 | 98 | 98 | 96 | 99 | 98 | 100 | 97 | 101 | 98 | 101 | 94 | 101 | 84 | 99 | 79 | 16 | Antioxidant effect on autoxidation of arachidonic acid (in words) [1]: effective antioxidants; Arachidonic acid (%) recovered following autoxidation in the presence of the compound [1, 10]: 98%; Compound (%) recovered following autoxidation with arachidonic acid [1, 10]: 97%; Arachidonic acid (%) recovered following autoxidation in the presence of the compound [1, 11]: 99%; Compound (%) recovered following autoxidation with arachidonic acid [1, 11]: 98%; Arachidonic acid (%) recovered following autoxidation in the presence of the compound [1, 12]: 98%; Compound (%) recovered following autoxidation with arachidonic acid [1, 12]: 97%; Arachidonic acid (%) recovered following autoxidation in the presence of the compound [1, 13]: 99%; Compound (%) recovered following autoxidation with arachidonic acid [1, 13]: 97%; Arachidonic acid (%) recovered following autoxidation in the presence of the compound [1, 14]: 99%; Compound (%) recovered following autoxidation with arachidonic acid [1, 14]: 100%; Compound (%) recovered following autoxidation with arachidonic acid [1, 17]: 59% |
| CCCCC/C=C\C/C=C\C/C=C\C/C=C\CCCCSCCC [Compound 110, propyl(all-Z)-eicosa-5,8,11,14-tetraenylpropyl sulfide] | effectively inhibit | still effective antioxidiants | – | – | – | – | 100 | 99 | – | – | 100 | 100 | 97 | 85 | 89 | 22 | 67 | 24 | 10 | – |
| CCCCCCCCCCCCCCSCCC [Compound 111, propyltetradecyl sulfide] | effectively inhibit | still effective antioxidiants | 100 | 101 | 98 | 91 | 98 | 92 | 98 | 92 | 97 | 90 | 99 | 81 | 99 | 63 | 97 | 68 | 17 | Compound (%) recovered following autoxidation with arachidonic acid [1, 17]: 38% |
| CC/C=C\C/C=C\C/C=C\CCCCCCCCSCCC(=O)O [Compound 112, 3-[(Z,Z,Z)-(octadeca-9,12,15-trienylthio)]-propionic acid] | effective as an antioxidant | less effective than either compound 19 or 106 | 100 | 100 | 99 | 98 | 98 | 97 | 99 | 97 | 93 | 86 | 82 | 25 | 33 | – | 17 | 4 | – | Antioxidant effect on autoxidation of arachidonic acid (in words) [1]: effective antioxidants |
